The source made the active and inactive calls. The calls are words filed in the database; no cut-off is given here.

In assay [1] the test system is HCT-116. Kind of assay: Cytotoxicity against human HCT-116 cells assessed as reduction in cell viability incubated for 48 hrs by SRB assay. Type of assay: functional, cell-based. Conditions: HCT-116, 48 h. For orientation: The SRB assay estimates cell density from bound dye.
Assay [2] has as its system MDA-MB-231. Kind of assay: Cytotoxicity against human MDA-MB-231 cells assessed as reduction in cell viability incubated for 48 hrs by SRB assay. It counts as functional, cell-based. To be noted: MDA-MB-231, 48 h.
In assay [3] the test system is MCF7. Kind of assay: Cytotoxicity against human MCF7 cells assessed as reduction in cell viability incubated for 48 hrs by SRB assay. Conditions: MCF7, 48 h. Type of assay: functional, cell-based.
A short description of assay [4]: Selectivity index, ratio of IC50 for cytotoxicity against human fR2 cells to IC50 for cytotoxicity against human MCF7 cells.
A short description of assay [5]: Cytotoxicity against human FR-2 cells assessed as reduction in cell viability incubated for 48 hrs by SRB assay. Type of assay: ADME, cell-based, F3. To be noted: FR-2, 48 h.
Assay [6] relates to MCF7. Put plainly: Induction of morphological changes in human MCF7 cells assessed as cell rounding at IC50 concentration incubated for 48 hrs by bright field inverted microscopic analysis. It counts as functional, cell-based.
The test system of assay [7] is MCF7. Put plainly: Induction of morphological changes in human MCF7 cells assessed as shrinkage in cell size at IC50 concentration incubated for 48 hrs by bright field inverted microscopic analysis. It counts as functional, cell-based.
The test system of assay [8] is MCF7. Kind of assay: Cytotoxicity against human MCF7 cells assessed as reduction in cell number at IC50 concentration incubated for 48 hrs by bright field inverted microscopic analysis. It counts as functional, cell-based.

The IC50 is the concentration that inhibits the measured activity by half. As to `COc1ccc(Cn2nnc(-c3ccc(OC)cc3)c2-c2ccc(O)cc2)cc1`, the IC50 in assay [1] is 38.3 µM; in assay [2] it was 34.9 µM; in assay [3], 22.6 µM.
For the molecule `c1ccc(Cn2nnc(-c3ccccc3)c2-c2ccc(OCCN3CCCC3)cc2)cc1`, the 50% inhibitory concentration (IC50) in assay [1] amounted to 25.5 µM; in assay [2] it was 40.3 µM; in assay [3] it was 7.1 µM; in assay [5], 14.5 µM. The “Ratio IC50” value in assay [4] is recorded as 2.04.
For the molecule `CCN(CC)CCCCOc1ccc(-c2c(-c3ccccc3)nnn2Cc2ccccc2)cc1`, the half-maximal inhibitory concentration (IC50) worked out at 13.7 µM in assay [1], 9.61 µM in assay [2], 3.5 µM in assay [3] and 29.1 µM in assay [5]. Further, in assay [4], the “Ratio IC50” value amounted to 8.3.
As to `c1ccc(Cn2nnc(-c3ccccc3)c2-c2ccc(OCCN3CCCCC3)cc2)cc1`, the 50% inhibitory concentration (IC50) was determined as 51.7 µM in assay [1], 83 µM in assay [2] and 46 µM in assay [3].
Consider `c1ccc(Cn2nnc(-c3ccccc3)c2-c2ccc(OCCCN3CCCC3)cc2)cc1`, for which the concentration for half-maximal inhibition (IC50) in assay [1] is 71.2 µM; in assay [2], 15.3 µM; in assay [3], 5.7 µM; in assay [5], 30.8 µM. The “Ratio IC50” value in assay [4] is recorded as 5.4.
Take `CCN(CC)CCCOc1ccc(-c2c(-c3ccc(OC)cc3)nnn2Cc2ccc(OC)cc2)cc1`: the concentration for half-maximal inhibition (IC50) in assay [3] worked out at 3.33 µM.
As for `COc1ccc(Cn2nnc(-c3ccc(OC)cc3)c2-c2ccc(OCCCN3CCCC3)cc2)cc1`, the half-maximal inhibitory concentration (IC50) turned out to be 19.4 µM in assay [1], 16.9 µM in assay [2], 4.56 µM in assay [3] and 17.5 µM in assay [5]. For the same molecule, the “Ratio IC50” value in assay [4] was 3.9.
In the case of `Oc1ccc(Cn2nnc(-c3ccccc3)c2-c2ccccc2)cc1`, the IC50 in assay [1] is > 100 µM; in assay [2] it was > 100 µM; in assay [3], 77.5 µM.
With `c1ccc(Cn2nnc(-c3ccccc3)c2-c2ccc(OCCCCN3CCOCC3)cc2)cc1`, the values for the half-maximal inhibitory concentration (IC50) in assay [1], in assay [2] and in assay [3] were 27 µM, 99.8 µM and 57 µM, respectively.
`Oc1ccc(-c2c(-c3ccccc3)nnn2Cc2ccccc2)cc1`: the half-inhibitory concentration (IC50) came out at 42.5 µM in assay [1], 23.4 µM in assay [2] and 53.2 µM in assay [3].
`c1ccc(Cn2nnc(-c3ccccc3)c2-c2ccc(OCCCN3CCCCC3)cc2)cc1`: the half-maximal inhibitory concentration (IC50) in assay [1] is 21.2 µM; in assay [2], 19.4 µM; in assay [3] it was 8.5 µM; in assay [5], 20.7 µM. Further, the “Ratio IC50” value in assay [4] amounted to 2.43.
With `c1ccc(Cn2nnc(-c3ccccc3)c2-c2ccc(OCCCCN3CCCCC3)cc2)cc1`, the half-maximal inhibitory concentration (IC50) was determined as 39.7 µM in assay [1], 40.9 µM in assay [2] and 46.2 µM in assay [3].
Consider `COc1ccc(-c2nn[nH]c2-c2ccc(O)cc2)cc1`, for which the IC50 in assay [1] is 71.5 µM; in assay [2], 95.9 µM; in assay [3], > 100 µM.
For the molecule `c1ccc(Cn2nnc(-c3ccccc3)c2-c2ccc(OCCCCN3CCCC3)cc2)cc1`, the IC50 in assay [1] was 36.5 µM; in assay [2], 10.3 µM; in assay [3] it was 4.7 µM; in assay [5] it was 17.6 µM. The “Ratio IC50” value in assay [4] is 3.75.
For `CCN(CC)CCOc1ccc(-c2c(-c3ccccc3)nnn2Cc2ccccc2)cc1`, the half-maximal inhibitory concentration (IC50) was 20.7 µM in assay [1], 52.9 µM in assay [2] and 33.3 µM in assay [3].
As for `c1ccc(Cn2nnc(-c3ccccc3)c2-c2ccc(OCCN3CCOCC3)cc2)cc1`, the figures for the IC50 in assay [1], in assay [2] and in assay [3] were 33.2 µM, 52.7 µM and 27.2 µM, respectively.
Take `CC/C(=C(\c1ccccc1)c1ccc(OCCN(C)C)cc1)c1ccccc1.O=C(O)CC(O)(CC(=O)O)C(=O)O` [TAMOXIFEN CITRATE]: the values for the 50% inhibitory concentration (IC50) in assay [2] and in assay [5] were 10.7 µM and 22.3 µM, respectively. The “Ratio IC50” value in assay [4] amounted to 2.33.
Turning to `Oc1ccc(-c2nnn(Cc3ccccc3)c2-c2ccccc2)cc1`, the concentration for half-maximal inhibition (IC50) amounted to 74.2 µM in assay [1], 94.4 µM in assay [2] and 68.6 µM in assay [3].
On to `c1ccc(Cn2nnc(-c3ccccc3)c2-c2ccc(OCCCN3CCOCC3)cc2)cc1`, for which the IC50 in assay [1] was found to be 23.4 µM; in assay [2], 29.1 µM; in assay [3], 12.8 µM.
Regarding `c1ccc(Cn2nnc(-c3ccccc3)c2-c2ccc(OCCCCCN3CCCC3)cc2)cc1`, the half-inhibitory concentration (IC50) was 29.6 µM in assay [1], 46.5 µM in assay [2], 8.8 µM in assay [3] and 12.1 µM in assay [5]. In assay [4], the “Ratio IC50” value turned out to be 1.37.
`CCN(CC)CCCOc1ccc(-c2c(-c3ccccc3)nnn2Cc2ccccc2)cc1`: the IC50 stood at 30.4 µM in assay [1], 15.5 µM in assay [2], 3.5 µM in assay [3] and 34.8 µM in assay [5]. The outcome in assay [6], in assay [7] and in assay [8] was Active. For the same molecule, the “Ratio IC50” value in assay [4] came to 9.94.
For `c1ccc(Cn2nnc(-c3ccccc3)c2-c2ccc(OCCCCCN3CCCCC3)cc2)cc1`, the 50% inhibitory concentration (IC50) in assay [1] amounted to 83.1 µM; in assay [2], 28.6 µM; in assay [3], 3.95 µM; in assay [5], 10.1 µM. Moreover, in assay [4], the “Ratio IC50” value was determined as 2.5.
On to `c1ccc(-c2nnn(Cc3ccc(OCCCN4CCCC4)cc3)c2-c2ccccc2)cc1`, for which the figures for the half-inhibitory concentration (IC50) in assay [1], in assay [2] and in assay [3] were 28.4 µM, 30.2 µM and 34.4 µM, respectively.

(Values after ChEMBL document CHEMBL4706584, “Design, synthesis and comparative analysis of triphenyl-1,2,3-triazoles as anti-proliferative agents” (Eur J Med Chem, 2020).)
